Source: PMC12035560, “Structures of Mycobacterium tuberculosis isoprenyl diphosphate synthase Rv2173 in substrate-bound forms” (Acta Crystallographica Section F: Structural Biology …, 2025)

Target: T1, Rv2173 (Mycobacterium tuberculosis, UniProt O53507)
T1 construct: gene idsA2
T1 sequence (O53507 whole entry): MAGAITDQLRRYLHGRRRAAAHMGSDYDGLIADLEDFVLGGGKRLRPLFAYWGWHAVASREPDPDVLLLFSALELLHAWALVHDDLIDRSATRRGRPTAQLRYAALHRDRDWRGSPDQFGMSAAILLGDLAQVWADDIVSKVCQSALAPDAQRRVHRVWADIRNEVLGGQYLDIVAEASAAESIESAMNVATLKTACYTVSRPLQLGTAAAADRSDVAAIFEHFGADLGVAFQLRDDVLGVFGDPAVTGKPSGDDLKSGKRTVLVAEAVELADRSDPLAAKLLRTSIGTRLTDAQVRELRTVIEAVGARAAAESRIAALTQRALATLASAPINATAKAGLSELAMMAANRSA

For CC(C)=CCOP(=O)(O)OP(=O)(O)O [DMAPP], the “X-ray crystal structure, 2.20 A, co-crystallization” value was “Two metal ions bind to the FARM, coordinating to the DMAPP bound in the allylic/DMAPP site”.
